Experiments:
Conditions in all cases: treatment: drug alone; 5 days
[1] = test system: 769-P; test: AUC of dose-response viability curve, drug alone (arbitrary (AUC of normalised viability)); higher = less growth inhibition
Protocol: (§1)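 Primary HTS: 8 RCC cell lines treated with 8 doses (up to 10 uM) of each library drug alone for 5 days; viability read by CellTiter-Glo and normalised to DMSO. GI50 was fitted with XLfit (4-parameter), AUC is the area under the dose-response curve, and minimum viability is the lowest fraction of DMSO viability across doses.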

[2] = test system: UO-31; test: as above
Protocol: as §1

[3] = test system: ACHN; test: as above
Protocol: as §1

[4] = test system: SN12C; test: as above
Protocol: as §1

[5] = test system: TK-10; test: as above
Protocol: as §1

[6] = test system: 786-O; test: as above
Protocol: as §1

[7] = test system: CAKI-1; test: as above
Protocol: as §1

[8] = test system: A498; test: as above
Protocol: as §1

[9] = test system: 769-P; test: minimum viability across doses, drug alone, relative to DMSO (fraction); higher = less growth inhibition
Protocol: as §1

[10] = test system: UO-31; test: as above
Protocol: as §1

[11] = test system: ACHN; test: as above
Protocol: as §1

[12] = test system: SN12C; test: as above
Protocol: as §1

[13] = test system: TK-10; test: as above
Protocol: as §1

[14] = test system: 786-O; test: as above
Protocol: as §1

[15] = test system: CAKI-1; test: as above
Protocol: as §1

[16] = test system: A498; test: as above
Protocol: as §1

[17] = test system: 769-P; test: GI50, drug alone; higher = less potent
Protocol: as §1

[18] = test system: UO-31; test: GI50, drug alone; higher = less potent
Protocol: as §1

[19] = test system: ACHN; test: GI50, drug alone; higher = less potent
Protocol: as §1

[20] = test system: SN12C; test: GI50, drug alone; higher = less potent
Protocol: as §1

[21] = test system: TK-10; test: GI50, drug alone; higher = less potent
Protocol: as §1

[22] = test system: 786-O; test: GI50, drug alone; higher = less potent
Protocol: as §1

[23] = test system: CAKI-1; test: GI50, drug alone; higher = less potent
Protocol: as §1

[24] = test system: A498; test: GI50, drug alone; higher = less potent
Protocol: as §1

Structure (SMILES)	GI50, drug alone [19]	GI50, drug alone [22]	AUC of dose-response viability curve [1]	AUC of dose-response viability curve [2]	AUC of dose-response viability curve [3]	AUC of dose-response viability curve [4]	AUC of dose-response viability curve [5]	AUC of dose-response viability curve [6]	AUC of dose-response viability curve [7]	AUC of dose-response viability curve [8]	minimum viability across doses [9]	minimum viability across doses [10]	minimum viability across doses [11]	minimum viability across doses [12]	minimum viability across doses [13]	minimum viability across doses [14]	minimum viability across doses [15]	minimum viability across doses [16]	GI50, drug alone [17]	GI50, drug alone [18]	GI50, drug alone [20]	GI50, drug alone [21]	GI50, drug alone [23]	GI50, drug alone [24]
CS(=O)(=O)N1CCN(Cc2cc3nc(-c4cccc5[nH]ncc45)nc(N4CCOCC4)c3s2)CC1 [GDC-0941]	690 nM	1530 nM	2.65	3.82	2.41	2.56	2.27	2.46	2.28	3.39	0.221	0.227	0.264	0.323	0.207	0.254	0.149	0.397	1540 nM	2660 nM	1940 nM	660 nM	563 nM	6940 nM
Cc1c(CN2CCN(C(=O)[C@H](C)O)CC2)sc2c(N3CCOCC3)nc(-c3cnc(N)nc3)nc12 [GDC-0980 (RG7422)]	231 nM	495 nM	2.2	2.23	1.89	2.07	1.73	2.23	1.75	3.1	0.0688	0.0186	0.0739	0.133	0.0656	0.0296	0.0405	0.215	495 nM	311 nM	370 nM	167 nM	190 nM	1360 nM
COc1cc2ncnc(Nc3ccc(F)c(Cl)c3)c2cc1OCCCN1CCOCC1 [Gefitinib (Iressa)]	1240 nM	> 10000 nM	2.66	4.31	2.4	3.15	2.43	3.22	3.04	4.53	0.536	0.872	0.179	0.693	0.269	0.781	0.281	1.05	> 10000 nM	> 10000 nM	> 10000 nM	1520 nM	5880 nM	> 10000 nM

Further lines, with some results ahead:

GI50, drug alone [19]	GI50, drug alone [22]	Structure (SMILES)	AUC of dose-response viability curve [1]	AUC of dose-response viability curve [2]	AUC of dose-response viability curve [3]	AUC of dose-response viability curve [4]	AUC of dose-response viability curve [5]	AUC of dose-response viability curve [6]	AUC of dose-response viability curve [7]	AUC of dose-response viability curve [8]	minimum viability across doses [9]	minimum viability across doses [10]	minimum viability across doses [11]	minimum viability across doses [12]	minimum viability across doses [13]	minimum viability across doses [14]	minimum viability across doses [15]	minimum viability across doses [16]	GI50, drug alone [17]	GI50, drug alone [18]	GI50, drug alone [20]	GI50, drug alone [21]	GI50, drug alone [23]	GI50, drug alone [24]
1510 nM	4230 nM	CN1CCN(C2CCN(C(=O)Nc3cc(Oc4ccc(NC(=O)C5(C(=O)Nc6ccc(F)cc6)CC5)c(F)c4)ccn3)CC2)CC1 [Golvatinib (E7050)]	3.55	5.28	2.67	3.38	2.56	2.78	3.05	4.37	0.423	0.471	0.0761	0.346	0.284	0.0352	0.0988	0.613	9710 nM	9860 nM	7830 nM	2590 nM	3060 nM	> 10000 nM
> 10000 nM	> 10000 nM	CCOC(=O)C1=C(N)Oc2ccc(Br)cc2[C@H]1[C@H](C#N)C(=O)OCC [HA14-1]	3.84	4.2	3.35	3.19	3.55	3.27	3.67	3.57	0.973	0.891	0.852	0.867	0.948	0.81	0.957	0.885	> 10000 nM	> 10000 nM	> 10000 nM	> 10000 nM	> 10000 nM	> 10000 nM

Source: the supplement of paper PMC8149375
